# Experiments:
# [1] = Oral bioavailability in Sprague-Dawley rat at 5 mg/kg; format: ADME, organism-based; settings: in vivo
# [2] = Volume of distribution at steady state in Sprague-Dawley rat at 1 mg/kg, iv; format: ADME, organism-based; parameters: dose 1 mg/kg, route intravenous; settings: in vivo, read-out: Vdss
# [3] = Plasma clearance in Sprague-Dawley rat at 1 mg/kg, iv; format: ADME, organism-based; parameters: dose 1 mg/kg, route intravenous
# [4] = Half life in Sprague-Dawley rat at 1 mg/kg, iv; format: ADME, organism-based; parameters: dose 1 mg/kg, route intravenous; settings: in vivo
# [5] = target: Metabotropic glutamate receptor 5 (Homo sapiens, UniProt P41594); test: Antagonist activity at mGlu5 receptor; format: functional
# Chain of Metabotropic glutamate receptor 5 (P41594 whole entry): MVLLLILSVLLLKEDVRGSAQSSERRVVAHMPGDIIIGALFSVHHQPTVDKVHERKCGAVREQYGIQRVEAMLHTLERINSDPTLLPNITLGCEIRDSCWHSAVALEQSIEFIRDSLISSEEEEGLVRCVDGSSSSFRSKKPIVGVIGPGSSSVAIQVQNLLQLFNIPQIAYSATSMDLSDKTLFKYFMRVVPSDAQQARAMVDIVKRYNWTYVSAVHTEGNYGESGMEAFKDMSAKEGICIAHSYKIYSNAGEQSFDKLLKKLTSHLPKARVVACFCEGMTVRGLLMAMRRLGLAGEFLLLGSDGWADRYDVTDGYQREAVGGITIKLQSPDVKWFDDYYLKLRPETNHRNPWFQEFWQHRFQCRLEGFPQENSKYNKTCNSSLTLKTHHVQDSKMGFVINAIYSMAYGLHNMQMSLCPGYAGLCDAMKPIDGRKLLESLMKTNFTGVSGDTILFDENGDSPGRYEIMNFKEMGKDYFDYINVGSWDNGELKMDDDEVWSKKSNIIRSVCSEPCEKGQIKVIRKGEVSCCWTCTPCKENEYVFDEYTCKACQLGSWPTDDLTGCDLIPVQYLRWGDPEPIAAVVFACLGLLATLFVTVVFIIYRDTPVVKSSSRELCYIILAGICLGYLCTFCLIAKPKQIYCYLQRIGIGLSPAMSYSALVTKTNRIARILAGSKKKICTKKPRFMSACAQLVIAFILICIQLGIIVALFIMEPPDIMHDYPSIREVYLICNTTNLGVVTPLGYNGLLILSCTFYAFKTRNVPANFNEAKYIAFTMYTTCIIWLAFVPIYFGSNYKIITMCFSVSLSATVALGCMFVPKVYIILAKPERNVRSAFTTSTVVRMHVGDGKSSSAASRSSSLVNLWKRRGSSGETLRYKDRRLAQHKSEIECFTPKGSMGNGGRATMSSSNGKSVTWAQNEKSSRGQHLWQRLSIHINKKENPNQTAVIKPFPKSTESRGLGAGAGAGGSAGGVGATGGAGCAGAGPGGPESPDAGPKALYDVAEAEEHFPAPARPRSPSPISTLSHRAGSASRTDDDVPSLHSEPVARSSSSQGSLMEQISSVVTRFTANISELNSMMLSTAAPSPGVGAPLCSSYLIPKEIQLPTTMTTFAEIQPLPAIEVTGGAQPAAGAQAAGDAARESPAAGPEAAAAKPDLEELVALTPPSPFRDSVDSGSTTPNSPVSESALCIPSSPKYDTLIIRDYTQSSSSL
# [6] = Intrinsic clearance in Wistar rat; format: ADME, organism-based; settings: in vivo
# [7] = in vivo; settings: Wistar, rat, po
# Description: Oral bioavailability in Wistar rat
# [8] = Volume of distribution at steady state in Wistar rat; format: ADME, organism-based; settings: in vivo, read-out: Vdss
# [9] = Drug metabolism in rat liver microsomes at 10 uM; format: ADME, Microsome; settings: read-out: Drug metabolism
# [10] = in vivo; settings: Wistar, rat
# [11] = physchem
# Description: Dissociation constant, pKa of the compound
smiles,measurement,setting,value
O=C(Nc1nc(-c2ccc(F)c(C(F)(F)F)c2)ns1)c1cnc(N2CCC(C(=O)O)CC2)c(Cl)c1,bioavailability,[1],73.5%
same,Vd,[2],0.22 L/kg
same,clearance,[3],0.0894 L/h/kg
same,half-life,[4],1.09 h
Cc1nc(C(=O)Nc2cccc(CO)n2)c(Nc2cccnc2)s1,Ki,[5],0.067 µM
Cc1cc(NC(=O)c2nc(C)sc2Nc2cccnc2)ccn1,Ki,[5],0.044 µM
Cc1nc(C(=O)Nc2ccc(F)cn2)c(Nc2cccnc2)s1,Ki,[5],0.013 µM
O=C(Nc1nc(-c2ccc(F)c(C(F)(F)F)c2)cs1)c1cnc(N2CCC(C(=O)O)CC2)c(Cl)c1,bioavailability,[1],66.8%
same,Vd,[2],0.83 L/kg
same,clearance,[3],0.413 L/h/kg
same,half-life,[4],1.34 h
CC(C)N1CCC(Oc2ccc3[nH]c(C(=O)N4CCC(F)(F)CC4)cc3c2)CC1,CLint scaled,[6],1.08 L/h/kg
same,bioavailability,[7],100%
same,Vd,[8],6 L/kg
Cc1cc(NC(=O)c2nc(C)sc2Nc2cncnc2)ccn1,Ki,[5],0.081 µM
C[C@@H](C1CC1)n1cc(Cl)nc(Nc2c(Cl)cc(OC(F)F)cc2Cl)c1=O,metabolised at 10 µM,[9],20%
Cc1nc(C(=O)Nc2ccc(F)cn2)c(Nc2cncnc2)s1,Ki,[5],0.031 µM
CC(C)N1CCC(Oc2ccc3[nH]c(C(=O)N4CCOCC4)cc3c2)CC1,half-life,[10],1.1 h
same,CLint scaled,[6],3 L/h/kg
same,Vd,[8],3.5 L/kg
Cc1cn([C@H](C)C2CC2)c(=O)c(Nc2c(Cl)cc(OC(F)F)cc2Cl)n1,metabolised at 10 µM,[9],7%
c1cn[nH]c1 [PYRAZOLE],pKa,[11],2.52
C1CNC1 [AZETIDINE],pKa,[11],10.7
C[C@H](C1CC1)n1cc(C#N)nc(Nc2c(Cl)cc(OC(F)F)cc2Cl)c1=O,metabolised at 10 µM,[9],1%
C[C@@H](C1CC1)n1cc(Br)nc(Nc2c(Cl)cc(OC(F)F)cc2Cl)c1=O,metabolised at 10 µM,[9],4%
c1ccnnc1 [PYRIDAZINE],pKa,[11],2.3
c1cocn1 [OXAZOLE],pKa,[11],0.8
c1cnsc1 [ISOTHIAZOLE],pKa,[11],-0.51
Cc1cccc(NC(=O)c2nc(C)sc2Nc2cccnc2)n1,Ki,[5],0.009 µM
c1cnccn1 [PYRAZINE],pKa,[11],0.4
Cc1nc(C(=O)Nc2ccc(O)c(C)n2)c(Nc2cccnc2)s1,Ki,[5],0.111 µM
C1CCCNCC1 [AZEPANE],pKa,[11],10.9
O=C(Nc1nc(-c2ccc(F)c(C(F)(F)F)c2)c(F)s1)c1cnc(N2CCC(C(=O)O)CC2)c(Cl)c1,bioavailability,[1],73%
same,Vd,[2],0.34 L/kg
same,clearance,[3],0.167 L/h/kg
same,half-life,[4],1.67 h

# Source: ChEMBL document CHEMBL2169779, “Mitigating heterocycle metabolism in drug discovery” (J Med Chem, 2012)
